Structures are written as SMILES.

In assay [1] the test system is corn. The assay can be described thus: Postemergent control of plant species. Type of assay: in vivo, Zea mays. To be noted: Zea mays, post-emergence, 336 h, read-out: percent postemergent control. In short, it runs like this: (§1)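 Compounds were taken up in acetone at twice the final concentration, then diluted with an equal volume of water containing 0.1% surfactant and sprayed onto greenhouse-grown plants at the 2-4 leaf stage. Plants were kept about two weeks under growth conditions; control is growth reduction relative to untreated plants of the same species.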

In another assay the test system is soybean. The assay can be described thus: Preemergent control of plant species. To be noted: Glycine max, pre-emergence, 336 h; 0.25 lb/acre; read-out: percent preemergent control. The format is in vivo, Glycine max. A digest of the protocol:
(§2)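 Seeds sown in agricultural soil beds in a greenhouse received aqueous emulsions of test compositions applied uniformly over the bed surface at the listed rates; water-treated beds served as control. After two weeks under greenhouse growth conditions, control was scored as growth reduction versus untreated plants of the same species.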

For another assay, the system named is wild oats. The assay can be described thus: Preemergent control of plant species. To be noted: Avena fatua, pre-emergence, 336 h; 0.25 lb/acre; read-out: percent preemergent control. Type of assay: in vivo. A digest of the protocol: as §2
Another assay concerns jimsonweed. The assay can be described thus: Preemergent control of plant species. The format is in vivo, Datura stramonium. To be noted: Datura stramonium, pre-emergence, 336 h; 0.25 lb/acre; read-out: percent preemergent control. In short, it runs like this:
as §2

Assay [2] deals with yellow nutsedge. The assay can be described thus: Postemergent control of plant species. Type of assay: in vivo, Cyperus esculentus. To be noted: Cyperus, post-emergence, 336 h, read-out: percent postemergent control. In short, it runs like this:
as §1

The test system of the next assay is wheat. In words: Postemergent control of plant species. To be noted: Triticum aestivum, post-emergence, 336 h, read-out: percent postemergent control. Type of assay: in vivo, Triticum aestivum. A digest of the protocol: as §1
Another assay relates to annual morning glory. In words: Postemergent control of plant species. To be noted: Ipomoea, post-emergence, 336 h, read-out: percent postemergent control. Type of assay: in vivo, Ipomoea spp. A digest of the protocol: as §1
The subject of another assay is yellow foxtail. In words: Preemergent control of plant species. The format is in vivo, Setaria lutescens. To be noted: Setaria, pre-emergence, 336 h; 0.25 lb/acre; read-out: percent preemergent control. In short, it runs like this:
as §2

Assay [3] concerns corn. The assay can be described thus: Preemergent control of plant species. Type of assay: in vivo, Zea mays. To be noted: Zea mays, pre-emergence, 336 h; 0.25 lb/acre; read-out: percent preemergent control. A digest of the protocol:
as §2

Another assay relates to cotton. In words: Postemergent control of plant species. The format is in vivo, Gossypium spp. To be noted: Gossypium hirsutum, post-emergence, 336 h, read-out: percent postemergent control. In short, it runs like this:
as §1

Assay [4] has as its system nitrification of ammonium nitrogen. In words: Suppression of nitrification of ammonium nitrogen in soil. To be noted: 27° C. In short, it runs like this:
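Value is % NH4-N remaining after a two-week, 27° C incubation of treated soil held at 1/3 bar tension moisture. Nitrate was measured with an ion-selective electrode after extraction with ammonium sulfate solution and 10 min shaking.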

In assay [5] the test system is yellow nutsedge. In words: Preemergent control of plant species. The format is in vivo, Cyperus esculentus. To be noted: Cyperus, pre-emergence, 336 h; 0.25 lb/acre; read-out: percent preemergent control. A digest of the protocol: as §2
For the next assay, the system named is rice. The assay can be described thus: Control of aquatic plant species (paddy water). The format is in vivo, Oryza sativa. To be noted: Oryza sativa, 216 h, nine days, read-out: Percent control; for pest or weed control at 1000 g/ha: 1.0 Kg/Ha. A digest of the protocol: (§3)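 Seedlings at the 1-2 inch stage were transplanted into about 2 inches of soil and flooded to roughly 1 inch. An acetone concentrate of test chemical was injected into the paddy water, with the injected volume varied to set concentration. Percent control was rated nine days after application.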

Another assay has as its system barnyardgrass. In words: Control of aquatic plant species (paddy water). Type of assay: in vivo, Echinochloa crusgalli. To be noted: Echinochloa crus-galli, 216 h, nine days, read-out: Percent control; for pest or weed control at 1000 g/ha: 1.0 Kg/Ha. The method, then: In testing for such utility, the plant species to be tested were transplanted into 16 oz. containers into about 2 inches of soil when they were in the 1-2 inch stage and then flooded to a depth of about 1 inch. An acetone concentrate of the chemical to be tested was then injected into the paddy water, the volume injected being varied as desired to provide the desired concentration. Percent control was evaluated nine days after application.

A further assay concerns sprangletop. The assay can be described thus: Control of aquatic plant species (paddy water). Type of assay: in vivo, Leptochloa filiformis. To be noted: Leptochloa filiformis, 216 h, nine days, read-out: Percent control; for pest or weed control at 1000 g/ha: 1.0 Kg/Ha. In short, it runs like this:
as §3

Assay [6] deals with yellow nutsedge. The assay can be described thus: Control of aquatic plant species (paddy water). The format is in vivo, Cyperus esculentus. To be noted: Cyperus, 216 h, nine days, read-out: Percent control; for pest or weed control at 1000 g/ha: 1.0 Kg/Ha. A digest of the protocol: as §3
The next assay deals with sorghum. The assay can be described thus: Preemergent control of plant species. The format is in vivo, Sorghum vulgare. To be noted: Sorghum, pre-emergence, 336 h; 0.25 lb/acre; read-out: percent preemergent control. In short, it runs like this:
as §2

Regarding `CC(=O)N(c1c(Cl)cccc1Cl)S(=O)(=O)c1nc2nc(C)cc(C)n2n1` [Compound 262], the plant injury at 500 ppm came to 50% in the assay on corn [1], 10% with wheat and 100% in the assay on cotton. Moreover, the plant injury at 280.212 g/ha in the assay on soybean came to 100%; with corn [3] it was 80%. In addition, the pest or weed control at 280.212 g/ha is 50% in the assay with wild oats, 100% with jimsonweed, 95% with yellow foxtail and 100% in the assay on yellow nutsedge [5]. Also, the pest or weed control at 500 ppm in the assay on yellow nutsedge [2] was 80%; in the assay on annual morning glory it was 100%. Moreover, the “% NH4-N Remaining After 2 Weeks Incubation” value in assay [4] (0.06 ppm) is listed as 28%; in [4] (0.25 ppm), 49%; in assay [4] (1 ppm), 75%; in assay [4] (4 ppm) it was 89%.
With `Cc1cc(C)n2nc(S(=O)(=O)Nc3ccccc3F)nc2n1` [Compound 8], the plant injury at 500 ppm worked out at 20% in the assay with corn [1] and 10% in the assay with wheat. Also, the pest or weed control at 1000 g/ha came out at 97% in the assay with rice, 99% in the assay with barnyardgrass, 0% in the assay on sprangletop and 93% in the assay on yellow nutsedge [6]. Further, the plant injury at 280.212 g/ha in the assay with soybean is 95%; with corn [3], 80%. In addition, the pest or weed control at 280.212 g/ha in the assay on wild oats stood at 15%; in the assay with jimsonweed it was 100%; in the assay on yellow foxtail, 60%; with yellow nutsedge [5] it was 75%. In addition, the pest or weed control at 500 ppm in the assay on yellow nutsedge [2] was 60%; in the assay on annual morning glory it was 70%. Further, the “% NH4-N Remaining After 2 Weeks Incubation” value came to 4% in [4] (0.06 ppm); 23% in assay [4] (0.125 ppm); 44% in assay [4] (0.25 ppm); 59% in [4] (0.5 ppm); 67% in assay [4] (1 ppm).
As to `Cc1cc(C)n2nc(S(=O)(=O)Nc3ccccc3[N+](=O)[O-])nc2n1` [Compound 12], the plant injury at 500 ppm with corn [1] came out at 10%; in the assay with wheat, 0%. Also, the pest or weed control at 1000 g/ha in the assay with rice came to 70%; in the assay on barnyardgrass, 97%; with sprangletop, 0%; in the assay on yellow nutsedge [6], 95%. For the same molecule, the plant injury at 280.212 g/ha amounted to 95% with soybean and 50% with corn [3]. Moreover, the pest or weed control at 280.212 g/ha came to 0% with wild oats, 0% with jimsonweed, 0% with yellow foxtail and 50% in the assay on yellow nutsedge [5]. Further, the values for the pest or weed control at 500 ppm in the assay on yellow nutsedge [2] and in the assay on annual morning glory were 90% and 100%, respectively. Besides, the “% NH4-N Remaining After 2 Weeks Incubation” value in assay [4] (0.06 ppm) stood at 40%; in assay [4] (0.125 ppm) it was 70%; in assay [4] (0.25 ppm), 74%; in [4] (0.5 ppm) it was 83%; in assay [4] (1 ppm), 87%.
With `Cc1cc(C)n2nc(S(=O)(=O)Nc3ccc(Cl)cc3C(F)(F)F)nc2n1` [Compound 34], the plant injury at 500 ppm was found to be 0% in the assay on corn [1], 0% with wheat and 70% in the assay with cotton. In addition, the results for the plant injury at 280.212 g/ha in the assay with sorghum, with soybean and in the assay on corn [3] were 90%, 80% and 0%, respectively. The pest or weed control at 280.212 g/ha worked out at 0% with wild oats, 0% in the assay with jimsonweed, 0% in the assay on yellow foxtail and 70% with yellow nutsedge [5]. Moreover, the results for the pest or weed control at 500 ppm with yellow nutsedge [2] and in the assay with annual morning glory were 60% and 75%, respectively. The “% NH4-N Remaining After 2 Weeks Incubation” value in [4] (0.01 ppm) amounted to 11%; in [4] (0.1 ppm), 51%; in [4] (1 ppm) it was 78%; in assay [4] (10 ppm), 90%.
As to `COC(=O)c1cccc(F)c1NS(=O)(=O)c1nc2nc(C)cc(C)n2n1` [Compound 26], the plant injury at 500 ppm with corn [1] turned out to be 80%; with wheat, 30%; with cotton, 100%. For the same molecule, the pest or weed control at 125 g/ha amounted to 93% with rice (0.125 Kg/Ha), 90% with barnyardgrass (0.125 Kg/Ha), 0% in the assay with sprangletop (0.125 Kg/Ha) and 95% in the assay on yellow nutsedge [6] (0.125 Kg/Ha). Also, the values for the plant injury at 280.212 g/ha with soybean and in the assay on corn [3] were 98% and 100%, respectively. Also, the pest or weed control at 280.212 g/ha stood at 40% in the assay on wild oats, 100% in the assay on jimsonweed, 100% in the assay with yellow foxtail and 100% with yellow nutsedge [5]. Besides, the pest or weed control at 500 ppm in the assay on yellow nutsedge [2] and in the assay on annual morning glory was 90% each time. Moreover, the “% NH4-N Remaining After 2 Weeks Incubation” value in assay [4] (0.06 ppm) came to 37%; in assay [4] (0.125 ppm), 45%; in assay [4] (0.25 ppm), 65%; in [4] (0.5 ppm) it was 73%; in [4] (1 ppm), 79%.
As for `Cc1cc(C)n2nc(S(=O)(=O)Nc3ccccc3I)nc2n1` [Compound 6], the plant injury at 500 ppm with corn [1] came out at 0%; in the assay on wheat it was 0%; in the assay with cotton, 60%. For the same molecule, the plant injury at 280.212 g/ha with sorghum turned out to be 50%; in the assay with soybean it was 10%; with corn [3], 0%. Further, the pest or weed control at 1000 g/ha was 93% in the assay with rice, 99% with barnyardgrass, 20% with sprangletop and 90% in the assay with yellow nutsedge [6]. Besides, the pest or weed control at 280.212 g/ha in the assay on jimsonweed came out at 0%; in the assay on yellow nutsedge [5], 50%. For the same molecule, the pest or weed control at 500 ppm was 90% in the assay with yellow nutsedge [2] and 80% with annual morning glory. For the same molecule, the “% NH4-N Remaining After 2 Weeks Incubation” value in assay [4] (0.01 ppm) is on record as 15%; in assay [4] (0.1 ppm), 55%; in assay [4] (1 ppm), 78%; in assay [4] (10 ppm), 87%.
Consider `CCc1cccc(CC)c1NS(=O)(=O)c1nc2nc(C)cc(C)n2n1` [Compound 33], for which the plant injury at 500 ppm came out at 25% in the assay on corn [1], 0% with wheat and 50% in the assay on cotton. Also, the plant injury at 280.212 g/ha is 0% with sorghum, 10% in the assay on soybean and 0% with corn [3]. Also, the pest or weed control at 1000 g/ha was 97% with rice, 97% with barnyardgrass, 90% in the assay with sprangletop and 97% with yellow nutsedge [6]. Moreover, the pest or weed control at 280.212 g/ha in the assay with wild oats amounted to 40%; in the assay with jimsonweed, 40%; in the assay with yellow foxtail, 0%. For the same molecule, the pest or weed control at 500 ppm in the assay with yellow nutsedge [2] is 10%; in the assay with annual morning glory, 60%. For the same molecule, the “% NH4-N Remaining After 2 Weeks Incubation” value was 8% in assay [4] (0.01 ppm), 42% in assay [4] (0.1 ppm), 77% in [4] (1 ppm) and 88% in assay [4] (10 ppm).

The record behind these values is patent US4740233A, “Substituted 1,2,4-triazolo[1,5-a]-pyrimidine-2-sulfonamides and compositions and methods of controlling undesired vegetation and suppressing the nitrification of ammonium nitrogen in soil” (The Dow Chemical Company, priority 1986, dated 1988).
